# Results as given in patent publication US5585273A (priority 1994, dated 1996).
# Where a SMILES comes first, the peptide text is derived from it. [ ]: non-standard residue; d: D form. The star is where a group is joined. Sta = CC(C)C[C@H](N)[C@@H](O)CC(=O)O; Isovaleryl = CC(C)CC(=O)*
# B1: Trypsin (boiled): trypsin boiled for 15 min (control) (protein, UniProt P00760 24-246, looked up)
# Serine protease 1: IVGGYTCGANTVPYQVSLNSGYHFCGGSLINSQWVVSAAHCYKSGIQVRLGEDNINVVEGNEQFISASKSIVHPSYNSNTLNNDIMLIKLKSAASLNSRVASISLPTSCASAGTQCLISGWGNTKSSGTSYPDVLKCLKAPILSDSSCKSAYPGQITSNMFCAGYLEGGKDSCQGDSGGPVVCSGKLQGIVSWGSGCAQKNKPGVYTKVCNYVSWIKQTIASN
# modifications: heat-denatured
# B2: Trypsin: Trypsin (serine protease) from bovine pancreas (2900 units/mg activity), 2 mg/ml (protein, UniProt P00760 24-246, looked up)
# Serine protease 1: B1 Serine protease 1
# B3: Papain (boiled): papain boiled for 15 min (control) (protein, UniProt P00784 134-345, looked up)
# Papain: IPEYVDWRQKGAVTPVKNQGSCGSCWAFSAVVTIEGIIKIRTGNLNEYSEQELLDCDRRSYGCNGGYPWSALQLVAQYGIHYRNTYPYEGVQRYCRSREKGPYAAKTDGVRQVQPYNEGALLYSIANQPVSVVLEAAGKDFQLYRGGIFVGPCGNKVDHAVAAVGYGPNYILIKNSWGTGWGENGYIRIKRGTGNSYGVCGLYTSSFYPVKN
# modifications: heat-denatured
# B4: Papain: Papain (thiol protease) from papaya latex (12 units/mg activity), 2 mg/ml (protein, UniProt P00784 134-345, looked up)
# Papain: B3 Papain
# Assays:
# [1] = system: [POLYMERIC DIALDEHYDE-KAPPA-CASEIN-HRPO] conjugate; conditions: acetate buffer pH 4.0, 15 minutes at room temperature
# Protocol: The suspension was incubated at room temperature for 15 minutes and centrifuged to remove the solid phase conjugate. Five microliters of the supernatant were added to a guaiac slide, followed by five microliters of hydrogen peroxide solution.
# [2] = system: [Sigmacell® 20-Hemoglobin-HRPO] (or the myoglobin equivalent) conjugate; conditions: acetate buffer pH 4.0, 15 minutes at room temperature
# Protocol: 40 mg (wet weight) [Sigmacell® 20-Hemoglobin-HRPO] (or the myoglobin equivalent) conjugate were suspended in 75 microliters acetate buffer, pH 4.0 and 25 microliters of test solution were added. The suspension was incubated at room temperature for 15 minutes and centrifuged to remove the solid phase conjugate. Five microliters of the supernatant were added to a guaiac slide, followed by five microliters of hydrogen peroxide solution.
# [3] = system: [Chitin-Kappa-Casein-HRPO] conjugate; conditions: acetate buffer pH 4.0, 15 minutes at room temperature
# Protocol: 40 mg (wet weight) [Chitin-Kappa-Casein-HRPO] conjugate were suspended in 75 microliters acetate buffer, pH 4.0 and 25 microliters of test solution were added. The suspension was incubated at room temperature for 15 minutes and centfifuged to remove the solid phase conjugate. Five μl of the supernatant were added to a guaiac slide, followed by five microliters of hydrogen peroxide solution.
# [4] = system: [Sepharose-Hemoglobin-HRPO] (or the myoglobin equivalent) conjugate; conditions: acetate buffer pH 4.0, 15 minutes at room temperature
# Protocol: 40 mg (wet weight) [Sepharose-Hemoglobin-HRPO] (or the myoglobin equivalent) conjugate were suspended in 75 microliters acetate buffer, pH 4.0 and 25 microliters of test solution were added. The suspension was incubated at room temperature for 15 minutes and centrifuged to remove the solid phase conjugate. Five microliters of the supernatant were added to a guaiac slide, followed by five microliters of hydrogen peroxide solution.
# [5] = system: [SIGMACELL® 20-KAPPA-CASEIN-HRPO] (HYDRAZIDE METHOD) or [SIGMACELL® 20-MYOGLOBIN/HEMOGLOBIN-HRPO] (ALDEHYDE METHOD); conditions: acetate buffer pH 4.0, 15 minutes at room temperature
# Protocol: (§1) 40 mg (wet weight) [Sigmacell® 20-Kappa-Casein-HRPO] conjugate were suspended in 75 microliters acetate buffer, pH 4.0 and 25 microliters of test solution were added. The suspension was incubated at room temperature for 15 minutes and centrifuged to remove the solid phase conjugate. Five microliters of the supernatant were added to a guaiac slide, followed by five microliters of hydrogen peroxide solution.
# [6] = system: [Sigmacell® 20-Kappa-Casein-HRPO] conjugate; conditions: acetate buffer pH 4.0, 15 minutes at room temperature
# Protocol: as §1
# [7] = system: [Sepharose-Casein-HRPO] (or the Kappa-Casein equivalent) conjugate; conditions: acetate buffer pH 4.0, 15 minutes at room temperature
# Protocol: 40 mg (wet weight) [Sepharose-Casein-HRPO] (or the Kappa-Casein equivalent) conjugate were suspended in 75 microliters acetate buffer, pH 4.0 and 25 microliters of test solution were added. The suspension was incubated at room temperature for 15 minutes and centrifuged to remove the solid phase conjugate. Five microliters of the supernatant were added to a guaiac slide, followed by five microliters of hydrogen peroxide solution.
# [8] = biological target: Candida albicans aspartic protease (Candida albicans, UniProt P0DJ06); conditions: Part II
# Protocol: (§2) In the second part, the enzymes are preincubated with their respective inhibitors and appropriate buffers for 15 mins. These are then added to the substrate and incubated at room temp for further 15 mins.
# (§3) In both cases, the reaction mixture is centrifuged to remove solid phase conjugate. The supernatant (5 μl) is added to Hemoccult® slides and developed with 5 μl of hydrogen peroxide.
# [9] = system: Candida albicans aspartic protease; conditions: background statement; cited from earlier work
# [10] = biological target: T1, Trypsin (serine protease) from bovine pancreas (Bos taurus, UniProt P00760); assay: Inhibition of trypsin-mediated HRPO release (Experiment XV, Part 2); type: biochemical; conditions: Part II
# T1 construct: purchased U.S. Biochemicals; host or cells: bovine pancreas
# Protocol: as §2, §3
# [11] = biological target: T2, Papain (thiol protease) from papaya latex (Carica papaya, UniProt P00784); assay: Inhibition of papain-mediated HRPO release (Experiment XV, Part 2); type: biochemical; conditions: Part II
# T2 construct: purchased Sigma Chemical Co; host or cells: papaya latex
# Protocol: as §2, §3
# [12] = system: [Eupergit® C-Myoglobin-HRPO]; assay: Activity of various proteases on Eupergit C-myoglobin-HRPO (Experiment XV); type: biochemical; conditions: Part I
# Protocol: This assay is set up in two parts. The first is to determine the activity of the different proteases on the substrate [Eupergit® C-Myoglobin-HRPO]. The enzymes and controls (enzymes boiled for 15 min) are incubated with 20 mg of substrate and buffers (see quantities in table below) for 15 minutes prior to assay.
# Chain of Candida albicans aspartic protease (Candida albicans, UniProt P0DJ06) (P0DJ06 57-398): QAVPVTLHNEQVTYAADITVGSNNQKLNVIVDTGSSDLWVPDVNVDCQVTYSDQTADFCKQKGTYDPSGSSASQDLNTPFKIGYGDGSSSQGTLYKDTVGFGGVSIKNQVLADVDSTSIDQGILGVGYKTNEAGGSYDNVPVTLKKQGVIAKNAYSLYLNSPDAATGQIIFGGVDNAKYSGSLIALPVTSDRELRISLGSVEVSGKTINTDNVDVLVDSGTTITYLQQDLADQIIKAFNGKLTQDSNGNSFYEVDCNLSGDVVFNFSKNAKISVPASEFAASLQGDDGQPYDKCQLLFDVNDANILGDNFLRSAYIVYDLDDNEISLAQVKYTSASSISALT
molecule,measurement,setting,value
Pepsin,blue color formation on guaiac impregnated sheet,[1],dark blue color
same,blue color formation on guaiac impregnated sheet,[2],dark blue color
same,blue color formation on guaiac impregnated sheet,[3],dark blue color
same,blue color formation on guaiac impregnated sheet,[4],dark blue color
same,blue color formation on guaiac impregnated sheet,[5],dark blue color
same,blue color formation on guaiac impregnated sheet,[6],dark blue color
same,blue color formation on guaiac impregnated sheet,[7],dark blue color
"CC(C)CC(=O)N[C@H](C(=O)N[C@H](C(=O)N[C@@H](CC(C)C)[C@@H](O)CC(=O)N[C@@H](C)C(=O)N[C@@H](CC(C)C)[C@@H](O)CC(=O)O)C(C)C)C(C)C [Pepstatin, Pepstatin A] (Isovaleryl-VV[Sta]A[Sta]-OH)",inhibition of color formation by aspartic protease,[8],inhibits color formation
same,inhibition of Candida albicans aspartic protease,[9],strongly inhibited
"Cc1ccc(S(=O)(=O)NC(CCCCN)C(=O)CCl)cc1 (stereo not drawn) [TLCK, Tosyl lysine chloromethyl ketone]",inhibition of color formation by trypsin,[10],inhibits color formation
same,inhibition of color formation by papain,[11],inhibits color formation
B1,blue color formation on guaiac slides,[12]; pH 7.4,faintest color detectable
B2,blue color formation on guaiac slides,[12]; pH 7.4,strong blue color
B3,blue color formation on guaiac slides,[12]; pH 7.4,faintest color detectable
B4,blue color formation on guaiac slides,[12]; pH 7.0,strong blue color
